Experimental data published in patent US10780074B2, “Compounds and uses thereof” (Sunovion Pharmaceuticals Inc., priority 2017, dated 2020).
Structures can show the parent of a compound that is named as a salt.

Test system: behaviors of compound-treated mice
Test: Neuropharmacological Assay (SmartCube)
Assay type: in vivo
Conditions: for minimal effective dose: Mus musculus, ip, 0.25 h, dose having 50% or more total activity in SmartCube, i.p., read-out: MED (minimal effective dose); for AD: ADHD (probability that activity matches class) / AG: analgesic (probability that activity matches class) / AX: anxiolytic (probability that activity matches class) / CE: cognitive enhancer (probability that activity matches class) / DP: anti-depressant (probability that activity matches class) / MS: mood stabilizer (probability that activity matches class) / PS: anti-psychotic (probability that activity matches class) / SD: sedative hypnotic (probability that activity matches class) / UN: uncharacterized CNS activity (probability that activity matches class): i.p. 15 min before behavioral test, most efficacious dose(s) of 3 doses
In short: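 Behavioral signatures were captured automatically by video, and each drug class received a probability for the best of three i.p. doses given 15 min pre-test (vehicle: Pharmasolve/PEG/propylene glycol). Potency is given as MED, the lowest mpk dose (typically 0.3–30) reaching 50% or more total activity.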

Structure (SMILES) | minimal effective dose [mg/kg] | AD: ADHD (probability that activity matches class) | AG: analgesic (probability that activity matches class) | AX: anxiolytic (probability that activity matches class) | CE: cognitive enhancer (probability that activity matches class) | DP: anti-depressant (probability that activity matches class) | MS: mood stabilizer (probability that activity matches class) | PS: anti-psychotic (probability that activity matches class) | SD: sedative hypnotic (probability that activity matches class) | UN: uncharacterized CNS activity (probability that activity matches class)
CNC[C@H]1OCCc2c(-c3cnco3)cccc21 (single isomer, unassigned) [Compound 97, hydrochloride salt] | ≤ 3 | + (LOQ ≤ + <5%) | ++ (5% ≤ ++ <25%) | ++ (5% ≤ ++ <25%) | + (LOQ ≤ + <5%) | ++ (5% ≤ ++ <25%) | + (LOQ ≤ + <5%) | ++ (5% ≤ ++ <25%) | ++++ (50% ≤ ++++) | ++ (5% ≤ ++ <25%)
CNC[C@H]1OCCc2c(-c3cnoc3)cccc21 (single isomer, unassigned) [Compound 85, hydrochloride salt] | ≤ 3 | ++ (5% ≤ ++ <25%) | + (LOQ ≤ + <5%) | ++ (5% ≤ ++ <25%) | + (LOQ ≤ + <5%) | ++++ (50% ≤ ++++) | + (LOQ ≤ + <5%) | + (LOQ ≤ + <5%) | + (LOQ ≤ + <5%) | ++ (5% ≤ ++ <25%)
CNC[C@@H]1OCCc2c(-c3ccnnc3)cccc21 (single isomer, unassigned) [Compound 76, hydrochloride salt] | 3 to 10 | + (LOQ ≤ + <5%) | ++ (5% ≤ ++ <25%) | ++ (5% ≤ ++ <25%) | + (LOQ ≤ + <5%) | + (LOQ ≤ + <5%) | + (LOQ ≤ + <5%) | + (LOQ ≤ + <5%) | + (LOQ ≤ + <5%) | + (LOQ ≤ + <5%)
NC[C@@H]1OCCCc2c(-c3ccncc3)cccc21 (single isomer, unassigned) [Compound 150] | 10 to 30 | + (LOQ ≤ + <5%) | + (LOQ ≤ + <5%) | ++ (5% ≤ ++ <25%) | + (LOQ ≤ + <5%) | ++ (5% ≤ ++ <25%) | + (LOQ ≤ + <5%) | + (LOQ ≤ + <5%) | + (LOQ ≤ + <5%) | + (LOQ ≤ + <5%)
CNC[C@H]1OCCc2cc(-c3cccnc3)ccc21 [Compound 6, (S)-N-methyl(6-(pyridin-3-yl)isochroman-1-yl)methanamine bis-hydrochloride] | 10 to 30 | + (LOQ ≤ + <5%) | ++ (5% ≤ ++ <25%) | ++ (5% ≤ ++ <25%) | ++ (5% ≤ ++ <25%) | +++ (25% ≤ +++ <50%) | + (LOQ ≤ + <5%) | ++ (5% ≤ ++ <25%) | + (LOQ ≤ + <5%) | + (LOQ ≤ + <5%)
NC[C@@H]1OCCc2c(-c3cnoc3)cccc21 (single isomer, unassigned) [Compound 86, hydrochloride salt] | 3 to 10 | + (LOQ ≤ + <5%) | + (LOQ ≤ + <5%) | ++ (5% ≤ ++ <25%) | ++ (5% ≤ ++ <25%) | ++ (5% ≤ ++ <25%) | + (LOQ ≤ + <5%) | ++ (5% ≤ ++ <25%) | + (LOQ ≤ + <5%) | +++ (25% ≤ +++ <50%)
NC[C@H]1OCCc2c(-c3cocn3)cccc21 [Compound 101, (S)-(5-(oxazol-4-yl)isochroman-1-yl)methanamine HCl salt] | 3 to 10 | ++ (5% ≤ ++ <25%) | + (LOQ ≤ + <5%) | ++ (5% ≤ ++ <25%) | + (LOQ ≤ + <5%) | ++ (5% ≤ ++ <25%) | + (LOQ ≤ + <5%) | + (LOQ ≤ + <5%) | + (LOQ ≤ + <5%) | ++ (5% ≤ ++ <25%)
NC[C@@H]1OCCc2c(-c3ccccn3)cccc21 (single isomer, unassigned) [Compound 45, hydrochloride] | 10 to 30 | + (LOQ ≤ + <5%) | ++ (5% ≤ ++ <25%) | ++ (5% ≤ ++ <25%) | + (LOQ ≤ + <5%) | ++ (5% ≤ ++ <25%) | + (LOQ ≤ + <5%) | + (LOQ ≤ + <5%) | + (LOQ ≤ + <5%) | +++ (25% ≤ +++ <50%)
NCC1OCCc2c(-c3ccncn3)cccc21 (centres unmarked) [Compound 60, (5-(Pyrimidin-4-yl)isochroman-1-yl)methanamine hydrochloride salt] | 3 to 10 | + (LOQ ≤ + <5%) | ++ (5% ≤ ++ <25%) | ++ (5% ≤ ++ <25%) | + (LOQ ≤ + <5%) | ++++ (50% ≤ ++++) | + (LOQ ≤ + <5%) | + (LOQ ≤ + <5%) | + (LOQ ≤ + <5%) | + (LOQ ≤ + <5%)
NC[C@H]1OCCCc2c(-c3ccncn3)cccc21 (single isomer, unassigned) [Compound 167] | 10 to 30 | + (LOQ ≤ + <5%) | + (LOQ ≤ + <5%) | + (LOQ ≤ + <5%) | + (LOQ ≤ + <5%) | + (LOQ ≤ + <5%) | + (LOQ ≤ + <5%) | + (LOQ ≤ + <5%) | + (LOQ ≤ + <5%) | + (LOQ ≤ + <5%)
NC[C@H]1OCCc2c(-c3ncc[nH]3)cccc21 [Compound 109, (S)-(5-(1H-Imidazol-2-yl)isochroman-1-yl)methanamine hydrochloride salt] | > 30 | + (LOQ ≤ + <5%) | + (LOQ ≤ + <5%) | ++ (5% ≤ ++ <25%) | + (LOQ ≤ + <5%) | ++ (5% ≤ ++ <25%) | + (LOQ ≤ + <5%) | + (LOQ ≤ + <5%) | + (LOQ ≤ + <5%) | + (LOQ ≤ + <5%)
